Measurements from ChEMBL document CHEMBL1681715, “4-aminopyrimidine-5-carbaldehyde oximes as potent VEGFR-2 inhibitors. Part II” (Bioorg Med Chem Lett, 2011).
pIC50: −log10 of the molar value. Blank lines part the entries; values can stand above or below the compound they belong to. The source made the active and inactive calls. No cut-off for these calls is given here.

Experiments:
[1] = molecular target: Vascular endothelial growth factor receptor 2 (Homo sapiens, UniProt P35968)
A-431 [2] = assay: Antitumor activity against human A431 cells xenografted mouse model measured at 100 to 200 mg/kg, po after 10 to 14 days; type: functional
[3] = Half life in BALB/c mouse at 10 mg/kg, po; type: ADME, organism-based; design: dose 10 mg/kg, route oral; conditions: in vivo
[4] = Cmax in rat at 2 mg/kg, iv; type: ADME, organism-based; design: dose 2 mg/kg, route intravenous; conditions: in vivo
HCT-116 [5] = assay: Antitumor activity against human HCT116 cells xenografted po dosed mouse model measured after 10 to 14 days; type: functional, organism-based
Mus musculus [6] = assay: AUC in BALB/c mouse at 10 mg/kg, po; type: ADME, organism-based, Plasma; design: dose 10 mg/kg, route oral; conditions: in vivo
Mus musculus [7] = assay: Oral bioavailability in BALB/c mouse at 10 mg/kg; type: ADME, organism-based; conditions: in vivo
HCT-116 [8] = assay: Antitumor activity against human HCT116 cells xenografted mouse model measured at 100 to 200 mg/kg, po after 10 to 14 days; type: functional
[9] = Cmax in BALB/c mouse at 2 mg/kg, iv; type: ADME, organism-based; design: dose 2 mg/kg, route intravenous; conditions: in vivo
[10] = Clearance in rat at 2 mg/kg, iv; type: ADME, organism-based; design: dose 2 mg/kg, route intravenous; conditions: in vivo
[11] = Cmax in rat at 10 mg/kg, po; type: ADME, organism-based; design: dose 10 mg/kg, route oral; conditions: in vivo
Mus musculus [12] = assay: Toxicity in mouse assessed as body weight at 100 to 200 mg/kg, po after 24 days; type: organism-based; design: dose 100-200 mg/kg, route oral; conditions: in vivo, 576 h
[13] = Half life in rat at 10 mg/kg, po; type: ADME, organism-based; design: dose 10 mg/kg, route oral; conditions: in vivo
[14] = molecular target: T1, Receptor-type tyrosine-protein kinase FLT3 (Homo sapiens, UniProt P36888); assay: Inhibition of FLT3
T1 sequence (P36888 whole entry): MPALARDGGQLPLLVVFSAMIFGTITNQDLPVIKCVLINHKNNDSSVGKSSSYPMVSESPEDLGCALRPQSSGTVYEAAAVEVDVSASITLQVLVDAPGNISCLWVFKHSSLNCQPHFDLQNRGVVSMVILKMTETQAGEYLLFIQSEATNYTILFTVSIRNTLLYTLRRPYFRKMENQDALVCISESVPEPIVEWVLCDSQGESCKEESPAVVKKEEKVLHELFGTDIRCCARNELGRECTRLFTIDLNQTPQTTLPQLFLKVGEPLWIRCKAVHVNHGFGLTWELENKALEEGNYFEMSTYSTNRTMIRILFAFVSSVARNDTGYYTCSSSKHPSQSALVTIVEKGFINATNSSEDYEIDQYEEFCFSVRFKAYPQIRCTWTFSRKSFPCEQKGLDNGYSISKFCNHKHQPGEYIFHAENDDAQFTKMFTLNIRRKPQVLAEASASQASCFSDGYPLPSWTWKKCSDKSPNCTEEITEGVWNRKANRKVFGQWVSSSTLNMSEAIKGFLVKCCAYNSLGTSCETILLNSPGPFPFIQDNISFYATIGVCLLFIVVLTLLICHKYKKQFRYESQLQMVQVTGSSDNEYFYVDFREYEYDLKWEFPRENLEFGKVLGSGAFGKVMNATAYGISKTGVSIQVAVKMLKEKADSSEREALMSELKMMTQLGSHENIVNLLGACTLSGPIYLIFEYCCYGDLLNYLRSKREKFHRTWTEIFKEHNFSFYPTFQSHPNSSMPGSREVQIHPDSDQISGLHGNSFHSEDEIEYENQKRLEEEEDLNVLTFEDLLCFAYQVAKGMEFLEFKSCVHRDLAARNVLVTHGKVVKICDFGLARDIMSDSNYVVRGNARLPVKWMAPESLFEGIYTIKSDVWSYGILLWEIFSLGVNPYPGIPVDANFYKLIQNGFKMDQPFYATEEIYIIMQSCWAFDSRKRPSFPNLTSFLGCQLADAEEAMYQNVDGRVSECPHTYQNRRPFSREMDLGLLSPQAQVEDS

[15] = molecular target: Mast/stem cell growth factor receptor Kit (Homo sapiens, UniProt P10721); assay: Inhibition of KIT
Mast/stem cell growth factor receptor Kit, sequence (P10721 whole entry): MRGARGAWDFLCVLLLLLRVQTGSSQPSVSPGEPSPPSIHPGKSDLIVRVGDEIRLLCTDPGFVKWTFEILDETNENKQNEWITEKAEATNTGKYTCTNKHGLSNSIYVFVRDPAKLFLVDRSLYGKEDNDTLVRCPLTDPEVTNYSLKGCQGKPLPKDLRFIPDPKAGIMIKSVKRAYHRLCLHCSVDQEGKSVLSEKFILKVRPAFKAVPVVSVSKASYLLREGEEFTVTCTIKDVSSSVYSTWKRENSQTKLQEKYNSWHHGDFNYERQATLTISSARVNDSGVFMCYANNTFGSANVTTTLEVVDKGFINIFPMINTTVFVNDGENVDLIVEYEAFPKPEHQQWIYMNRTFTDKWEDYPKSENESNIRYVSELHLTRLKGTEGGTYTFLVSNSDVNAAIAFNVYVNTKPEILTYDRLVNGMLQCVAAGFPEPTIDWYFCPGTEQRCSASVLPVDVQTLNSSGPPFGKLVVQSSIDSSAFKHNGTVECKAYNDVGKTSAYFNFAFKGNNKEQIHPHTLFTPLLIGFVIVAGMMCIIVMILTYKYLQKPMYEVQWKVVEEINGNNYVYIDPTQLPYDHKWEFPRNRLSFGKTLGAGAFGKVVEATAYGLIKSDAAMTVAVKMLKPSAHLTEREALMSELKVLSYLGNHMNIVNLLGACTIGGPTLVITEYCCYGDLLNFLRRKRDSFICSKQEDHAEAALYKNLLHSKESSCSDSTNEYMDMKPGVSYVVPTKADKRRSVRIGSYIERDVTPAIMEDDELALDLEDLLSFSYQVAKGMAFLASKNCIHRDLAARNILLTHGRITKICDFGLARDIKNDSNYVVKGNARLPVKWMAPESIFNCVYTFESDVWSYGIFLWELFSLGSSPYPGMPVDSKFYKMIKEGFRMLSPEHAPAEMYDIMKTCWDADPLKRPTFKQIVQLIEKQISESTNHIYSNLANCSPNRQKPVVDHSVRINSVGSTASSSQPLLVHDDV

[16] = Clearance in BALB/c mouse at 2 mg/kg, iv; type: ADME, organism-based; design: dose 2 mg/kg, route intravenous; conditions: in vivo
HCT-116 [17] = assay: Antiproliferative activity against human HCT116 cells at 100 uM; type: functional, cell-based
[18] = molecular target: Vascular endothelial growth factor receptor 1 (Homo sapiens, UniProt P17948); assay: Inhibition of FLT1
Vascular endothelial growth factor receptor 1, sequence (P17948 whole entry): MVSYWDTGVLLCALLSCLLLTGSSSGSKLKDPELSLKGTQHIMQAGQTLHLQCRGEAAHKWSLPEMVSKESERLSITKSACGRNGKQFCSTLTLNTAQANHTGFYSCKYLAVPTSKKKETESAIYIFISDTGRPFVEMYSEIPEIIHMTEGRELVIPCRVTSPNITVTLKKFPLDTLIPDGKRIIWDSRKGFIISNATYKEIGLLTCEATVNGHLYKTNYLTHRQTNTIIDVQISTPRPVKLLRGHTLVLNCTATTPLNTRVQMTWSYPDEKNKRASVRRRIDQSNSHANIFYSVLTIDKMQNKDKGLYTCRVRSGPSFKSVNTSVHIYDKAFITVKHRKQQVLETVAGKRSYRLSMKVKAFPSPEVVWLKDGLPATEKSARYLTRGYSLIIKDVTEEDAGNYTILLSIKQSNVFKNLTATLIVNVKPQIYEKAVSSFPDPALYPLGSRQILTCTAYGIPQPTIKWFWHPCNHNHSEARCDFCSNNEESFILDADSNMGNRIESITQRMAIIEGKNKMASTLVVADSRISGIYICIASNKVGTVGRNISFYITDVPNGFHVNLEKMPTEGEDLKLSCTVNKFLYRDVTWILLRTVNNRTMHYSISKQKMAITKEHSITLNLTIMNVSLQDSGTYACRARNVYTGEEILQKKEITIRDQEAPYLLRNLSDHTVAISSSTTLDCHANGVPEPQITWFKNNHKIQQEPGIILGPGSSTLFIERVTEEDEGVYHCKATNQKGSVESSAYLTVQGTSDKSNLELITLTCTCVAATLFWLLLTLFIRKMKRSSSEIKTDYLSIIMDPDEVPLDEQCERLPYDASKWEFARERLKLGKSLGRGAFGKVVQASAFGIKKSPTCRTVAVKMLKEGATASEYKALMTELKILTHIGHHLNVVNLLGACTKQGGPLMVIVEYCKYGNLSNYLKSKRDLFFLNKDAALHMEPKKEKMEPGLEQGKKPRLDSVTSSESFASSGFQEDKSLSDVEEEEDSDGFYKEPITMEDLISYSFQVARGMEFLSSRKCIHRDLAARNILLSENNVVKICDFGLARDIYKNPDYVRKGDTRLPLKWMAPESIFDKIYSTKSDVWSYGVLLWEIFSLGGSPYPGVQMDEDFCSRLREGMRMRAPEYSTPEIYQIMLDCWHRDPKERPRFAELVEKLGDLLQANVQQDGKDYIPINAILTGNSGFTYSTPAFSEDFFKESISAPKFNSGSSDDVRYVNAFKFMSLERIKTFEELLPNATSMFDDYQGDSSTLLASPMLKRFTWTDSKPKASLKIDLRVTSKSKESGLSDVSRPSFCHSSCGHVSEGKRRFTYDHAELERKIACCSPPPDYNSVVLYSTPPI

Rattus norvegicus [19] = assay: Oral bioavailability in rat at 10 mg/kg; type: ADME, organism-based; conditions: in vivo
[20] = Volume of distribution at steady state in rat at 2 mg/kg, iv; type: ADME, organism-based; design: dose 2 mg/kg, route intravenous; conditions: in vivo, read-out: Vdss
Mus musculus [21] = assay: AUC in BALB/c mouse at 2 mg/kg, iv; type: ADME, organism-based, Plasma; design: dose 2 mg/kg, route intravenous; conditions: in vivo
[22] = Half life in rat at 2 mg/kg, iv; type: ADME, organism-based; design: dose 2 mg/kg, route intravenous; conditions: in vivo
A-375 [23] = assay: Antiproliferative activity against human A375 cells at 100 uM; type: functional, cell-based
Rattus norvegicus [24] = assay: AUC in rat at 2 mg/kg, iv; type: ADME, organism-based, Plasma; design: dose 2 mg/kg, route intravenous; conditions: in vivo
[25] = Cmax in BALB/c mouse at 10 mg/kg, po; type: ADME, organism-based; design: dose 10 mg/kg, route oral; conditions: in vivo
[26] = Half life in BALB/c mouse at 2 mg/kg, iv; type: ADME, organism-based; design: dose 2 mg/kg, route intravenous; conditions: in vivo
[27] = Volume of distribution at steady state in BALB/c mouse at 2 mg/kg, iv; type: ADME, organism-based; design: dose 2 mg/kg, route intravenous; conditions: in vivo, read-out: Vdss
A-431 [28] = assay: Antitumor activity against human A431 cells xenografted po dosed mouse model measured after 10 to 14 days; type: functional, organism-based
A-375 [29] = assay: Antitumor activity against human A375 cells xenografted mouse model assessed as growth inhibition at 100 mg/kg, po; type: functional

Vascular endothelial growth factor receptor 2, sequence (P35968 whole entry): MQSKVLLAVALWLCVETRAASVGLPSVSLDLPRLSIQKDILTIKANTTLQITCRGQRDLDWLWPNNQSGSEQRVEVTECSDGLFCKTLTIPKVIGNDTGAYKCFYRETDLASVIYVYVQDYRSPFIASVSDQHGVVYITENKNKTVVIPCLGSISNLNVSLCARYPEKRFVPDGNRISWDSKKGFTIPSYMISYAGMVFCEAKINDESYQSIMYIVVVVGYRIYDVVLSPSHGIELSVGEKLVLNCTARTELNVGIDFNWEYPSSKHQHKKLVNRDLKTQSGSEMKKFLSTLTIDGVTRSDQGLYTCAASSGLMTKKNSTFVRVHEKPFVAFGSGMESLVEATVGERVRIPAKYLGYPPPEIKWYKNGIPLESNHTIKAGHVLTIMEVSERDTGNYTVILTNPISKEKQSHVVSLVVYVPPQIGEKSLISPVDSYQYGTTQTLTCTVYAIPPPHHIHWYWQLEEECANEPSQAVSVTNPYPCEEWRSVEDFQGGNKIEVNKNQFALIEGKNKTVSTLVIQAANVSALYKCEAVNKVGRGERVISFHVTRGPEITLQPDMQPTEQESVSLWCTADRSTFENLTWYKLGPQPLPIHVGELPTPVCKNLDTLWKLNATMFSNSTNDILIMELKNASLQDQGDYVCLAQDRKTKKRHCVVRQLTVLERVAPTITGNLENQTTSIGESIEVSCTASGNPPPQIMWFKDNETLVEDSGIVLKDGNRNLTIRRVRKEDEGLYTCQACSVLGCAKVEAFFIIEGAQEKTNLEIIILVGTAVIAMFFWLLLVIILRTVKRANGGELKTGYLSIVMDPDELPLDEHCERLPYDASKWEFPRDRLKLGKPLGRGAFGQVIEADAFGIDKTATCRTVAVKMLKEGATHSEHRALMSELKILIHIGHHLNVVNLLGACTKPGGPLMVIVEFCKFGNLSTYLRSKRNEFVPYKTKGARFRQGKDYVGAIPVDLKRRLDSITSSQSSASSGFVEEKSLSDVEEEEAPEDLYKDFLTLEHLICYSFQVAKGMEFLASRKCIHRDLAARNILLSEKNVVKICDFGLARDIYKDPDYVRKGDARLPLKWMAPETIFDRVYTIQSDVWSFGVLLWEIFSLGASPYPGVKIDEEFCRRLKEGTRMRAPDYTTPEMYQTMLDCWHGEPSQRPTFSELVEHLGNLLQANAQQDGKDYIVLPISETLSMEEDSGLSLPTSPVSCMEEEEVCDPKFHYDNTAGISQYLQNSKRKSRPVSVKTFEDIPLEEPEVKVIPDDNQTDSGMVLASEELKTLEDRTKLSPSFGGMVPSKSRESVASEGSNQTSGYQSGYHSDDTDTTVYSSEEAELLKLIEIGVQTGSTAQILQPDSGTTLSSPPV

SMILES: CCCNC(=O)Nc1ccc(Oc2ncnc(N)c2/C=N/OC)cc1Cl
pIC50 [1]: 7.55

SMILES: CCNC(=O)Oc1ccc(Oc2ncnc(N)c2/C=N/OC)cc1
pIC50 [1]: < 4.00

SMILES: CNC(=O)Nc1ccc(Oc2ncnc(N)c2/C=N/OC)cc1Cl
pIC50 [1]: 7.60

SMILES: CO/N=C/c1c(N)ncnc1Oc1ccc(NC(=O)Nc2cc(C)on2)c(Cl)c1
pIC50 [1]: 8.70

SMILES: CO/N=C/c1c(N)ncnc1Oc1ccc(NC(=O)Nc2ccccc2F)c(Cl)c1
pIC50 [1]: 8.48

SMILES: CO/N=C/c1c(N)ncnc1Oc1ccc(NC(=O)Nc2ccncc2)c(Cl)c1
pIC50 [1]: 7.96

SMILES: CO/N=C/c1c(N)ncnc1Oc1ccc(NC(=O)NCCCO)c(Cl)c1
pIC50 [1]: 6.40

SMILES: CO/N=C/c1c(N)ncnc1Oc1ccc(NC(=O)Nc2ccccc2Cl)c(Cl)c1
pIC50 [1]: 8.59

SMILES: CO/N=C/c1c(N)ncnc1Oc1ccc(NC(=O)Nc2nccs2)c(Cl)c1
pIC50 [1]: 8.47

SMILES: CNC(=O)Cc1ccc(Oc2ncnc(N)c2/C=N/OC)cc1
pIC50 [1]: 4.71

SMILES: CO/N=C/c1c(N)ncnc1Oc1ccc(NC(=O)Nc2cccc(F)c2)c(Cl)c1
pIC50 [1]: 8.77

SMILES: CO/N=C/c1c(N)ncnc1Oc1ccc(NC(=O)Nc2ccccn2)c(Cl)c1
pIC50 [1]: 7.47

SMILES: CCNC(=O)Nc1ccc(Oc2ncnc(N)c2/C=N/OC)cc1Cl
inhibition (INH) (A-431 [2]): 90%
half-life [3]: 126 min
Cmax [4]: 5400 ng/mL
Activity (HCT-116 [5]): Dose-dependent effect
AUC (Mus musculus [6]): 12305 ng·h/mL
F (Mus musculus [7]): 16%
inhibition (INH) (HCT-116 [8]): 90%
Cmax [9]: 2990 ng/mL
clearance [10]: 7.4 mL/min/kg
Cmax [11]: 1030 ng/mL
Activity (Mus musculus [12]): Non-toxic
half-life [13]: 600 min
pIC50 [14]: 5.32
pIC50 [15]: 6.29
clearance [16]: 5.6 mL/min/kg
Activity (HCT-116 [17]): inactive
pIC50 [18]: 5.35
F (Rattus norvegicus [19]): 30%
Vd [20]: 0.4 L/kg
AUC (Mus musculus [21]): 6114 ng·h/mL
half-life [22]: 42 min
Activity (A-375 [23]): inactive
AUC (Rattus norvegicus [24]): 4799 ng·h/mL
Cmax [25]: 2790 ng/mL
half-life [26]: 168 min
Vd [27]: 0.7 L/kg
Activity (A-431 [28]): Dose-dependent effect
inhibition in vivo at 100 mg/kg (A-375 [29]): 90%

SMILES: CO/N=C/c1c(N)ncnc1Oc1ccc(NC(=O)Nc2ccc(F)cc2)c(Cl)c1
pIC50 [1]: 8.55

SMILES: CO/N=C/c1c(N)ncnc1Oc1ccc(NC(=O)OC)cc1Cl
pIC50 [1]: 6.82

SMILES: CO/N=C/c1c(N)ncnc1Oc1ccc(NC(=O)Nc2ccccc2C)c(Cl)c1
pIC50 [1]: 8.10

Now from value to compound:

pIC50 [1]: 8.52
SMILES: CO/N=C/c1c(N)ncnc1Oc1ccc(NC(=O)Nc2ccc(F)cc2F)c(Cl)c1

pIC50 [1]: 6.85
SMILES: CNC(=O)Nc1ccc(Oc2ncnc(N)c2/C=N/OC)c(F)c1

pIC50 [1]: 8.19
SMILES: CO/N=C/c1c(N)ncnc1Oc1ccc(NC(=O)NC2CCCCC2)c(Cl)c1

pIC50 [1]: 8.60
SMILES: CO/N=C/c1c(N)ncnc1Oc1ccc(NC(=O)Nc2ccccc2OC)c(Cl)c1

pIC50 [1]: 6.74
SMILES: CCNC(=O)Nc1ccc(Oc2ncnc(N)c2/C=N/OC)c(C)c1

pIC50 [1]: 5.66
SMILES: CO/N=C/c1c(N)ncnc1Oc1ccc(NC(C)=O)cc1Cl

pIC50 [1]: 6.77
SMILES: CO/N=C/c1c(N)ncnc1Oc1ccc(NC(=O)NCCO)c(Cl)c1

pIC50 [1]: 8.00
SMILES: CO/N=C/c1c(N)ncnc1Oc1ccc(NC(=O)Nc2cccnc2)c(Cl)c1

pIC50 [1]: 8.52
SMILES: CO/N=C/c1c(N)ncnc1Oc1ccc(NC(=O)Nc2ccccc2)c(Cl)c1

pIC50 [1]: 6.85
SMILES: CCNC(=O)Nc1ccc(Oc2ncnc(N)c2/C=N/OC)cc1

pIC50 [1]: 6.55
SMILES: CO/N=C/c1c(N)ncnc1Oc1ccc(NC(=O)NCCN(C)C)c(Cl)c1

pIC50 [1]: 7.14
SMILES: CO/N=C/c1c(N)ncnc1Oc1ccc(NC(=O)NC(C)C)c(Cl)c1

pIC50 [1]: 6.12
SMILES: CO/N=C/c1c(N)ncnc1Oc1ccc(NC(=O)NCCCCN2CCCC2)c(Cl)c1

pIC50 [1]: 8.70
SMILES: CO/N=C/c1c(N)ncnc1Oc1ccc(NC(=O)Nc2nc(C)c(C)s2)c(Cl)c1

pIC50 [1]: 7.54
SMILES: CO/N=C/c1c(N)ncnc1Oc1ccc(NC(=O)NC2CC2)c(Cl)c1

pIC50 [1]: 7.99
SMILES: CO/N=C/c1c(N)ncnc1Oc1ccc(NC(=O)NCc2ccc(F)cc2F)c(Cl)c1

pIC50 [1]: < 4.00
SMILES: CNC(=O)Nc1ccc(Oc2ncnc(N)c2/C=N/OC)c(Br)c1
